Literature values as cited in patent US20020193313A1, “Method of increasing the efficacy of chemotherapy in the treatment of tumors” (priority 2001, published 2002).

Experiments:
[1] = test system: locally advanced breast cancer; settings: Tamoxifen to induce cell phase arrest, then estrogen to stimulate growth, 43% without synchronization
[2] = test system: advanced stages of different types of cancer; settings: topotecan for S phase synchronization followed by doxorubicin
various types of cancer = settings: in vitro

For CC/C=C\C/C=C\C/C=C\CCCCCCCC(=O)O [alpha linoleic acid], the “effect on tumor growth” value (tumor growth) is given as “stimulate tumor growth”.
For CC/C(=C(\c1ccccc1)c1ccc(OCCN(C)C)cc1)c1ccccc1 [Tamoxifen], the “patients whose tumors showed favorable response to phase specific chemotherapy” value [1] is listed as “approximately 82%”.
For C[C@@]1(CO)[C@H](O)CC[C@@]2(C)[C@H]1CC[C@H]1C[C@@H]3C[C@@]12CC[C@]3(O)CO [aphidicoline], the “phase of cell cycle arrest” value (in vitro T-cell lymphoma) is given as “arrest late in the G1 phase”.
In the case of CC[C@@]1(O)C(=O)OCc2c1cc1n(c2=O)Cc2cc3c(CN(C)C)c(O)ccc3nc2-1 [topotecan], the hematologic toxicity [2] is listed as “increased hematologic toxicity”.
For epidermal growth factor, the “phase of cell cycle arrest” value (in vitro breast cancer) is given as “arrest of in vitro breast cancer in the G1 phase”.
For COC(=O)Nc1nc2ccc(C(=O)c3cccs3)cc2[nH]1 [nocodazole], the “phase of cell cycle arrest” value (in vitro T-cell lymphoma) is given as “arrest in the M-phase”.
In the case of NC(Cn1ccc(=O)c(O)c1)C(=O)O (stereo not shown) [mimosine], the “phase of cell cycle arrest” value (in vitro T-cell lymphoma) is given as “arrest in the G1 phase”.
In the case of Cc1c(N)nc([C@H](CC(N)=O)NC[C@H](N)C(N)=O)nc1C(=O)N[C@H](C(=O)N[C@H](C)[C@@H](O)[C@H](C)C(=O)N[C@H](C(=O)NCCc1nc(-c2nc(C(=O)NCCCN[C@@H](C)c3ccccc3)cs2)cs1)[C@@H](C)O)[C@@H](O[C@@H]1O[C@@H](CO)[C@@H](O)[C@H](O)[C@@H]1O[C@H]1O[C@H](CO)[C@@H](O)[C@H](OC(N)=O)[C@@H]1O)c1c[nH]cn1 [peplomycin], the cell cycle arrest (various types of cancer) is listed as “arrest the cell cycle”.
For NC(=O)NO [hydrea], the “phase of cell cycle arrest” value (in vitro T-cell lymphoma) is given as “arrest in the S phase”.
In the case of C=C[C@H]1C[N@@]2CC[C@H]1C[C@@H]2[C@@H](O)c1ccnc2ccc(OC)cc12 [quinidine], the “phase of cell cycle arrest” value (in vitro breast cancer) is given as “arrest of in vitro breast cancer in the G1 phase”.
